Assay results: the supplement of paper PMC11208160

Experiment: recombinant UMI read abundance after kanamycin selection (control-corrected) (log10(CPM+1)); higher = more efficient recombination; extreme values may be limits of the assay; sequences stand for … in AGTGCAGAGAAAATCGGCCAGTTTTCTCTGCCTGCAGTCCGCATGCCGTGGGACCCCTTGGGTTCTAACCTGTTGCCTAGATTTATGCAGCGGACTGCCTTTCTCCCAAAGTGATAAACCGG…AGGTTGGTTTCACT; site = the 11-nt donor
Outline: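 Counts of recombinant UMIs were reported as log10(CPM+1). Before that, they were converted to CPM, averaged over replicates and scaled using control-derived factors. They came from PCR across the donor–target junction after Escherichia coli carrying the pair library and target plasmid was plated on IPTG (0.07 mM) plus kanamycin, or unselected, in two replicates each.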
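Also: IS621 bridge recombinase in Escherichia coli cells against a fixed T5 target plasmid.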

Sequence | recombinant UMI read abundance (log10)
CTTATCTCATGGACCGGTTTTCCCGGTAATCCGTATTTGTA (site CTTTTCTCTTA) | 0.00641
CTTCACACATGGACCGGTTTTCCCGGTAATCCGTATTTGTA (site CTTCACACTTA) | 0.61
CTTCCGCCATGGACCGGTTTTCCCGGTAATCCGTATTTGAG (site CTTCCGCCTCT) | 0.0295
CTTCGACCATGGACCGGTTTTCCCGGTAATCCGTATTTGCA (site CTTCGACCTTG) | 0
CTTCGAGCATGGACCGGTTTTCCCGGTAATCCGTATTTGTT (site CTTCGAGCTAA) | 1.59
CTTCGTCCATGGACCGGTTTTCCCGGTAATCCGTATTTGTT (site CTTCGTCCTAA) | 0.0114
CTTCTATCATGGACCGGTTTTCCCGGTAATCCGTATTTGTA (site CTTCTATCTTA) | 1.62
CTTCTATCATGGACCGGTTTTCCCGGTAATCCGTATTTGTA (site CTTCTCTCTTA) | 0.0109
CTTCTATCATGGACCGGTTTTCCCGGTAATCCGTATTTGTA (site CTTCTGTCTTA) | 0
CTTCTATCATGGACCGGTTTTCCCGGTAATCCGTATTTGTA (site CTTCTTTCTTA) | 0
CTTCTCACATGGACCGGTTTTCCCGGTAATCCGTATTTGTA (site CTTCTCACTTA) | 0.336
CTTCTCACATGGACCGGTTTTCCCGGTAATCCGTATTTGTA (site CTTCTCCCTTA) | 0.00809
CTTCTCACATGGACCGGTTTTCCCGGTAATCCGTATTTGTA (site CTTCTCGCTTA) | 0.0103
CTTCTCACATGGACCGGTTTTCCCGGTAATCCGTATTTGTA (site CTTCTCTCTTA) | 0
CTTCTCTCATGGACCGGTTTTCCCGGTAATCCGTATTTGCA (site CTTCTCTCTTA) | 0.866
CTTCTCTCATGGACCGGTTTTCCCGGTAATCCGTATTTGCA (site CTTCTCTCTTC) | 0

Sequence | recombinant UMI read abundance (log10)
CTTCTCTCATGGACCGGTTTTCCCGGTAATCCGTATTTGCA (site CTTCTCTCTTG) | 2.46
CTTCTCTCATGGACCGGTTTTCCCGGTAATCCGTATTTGCA (site CTTCTCTCTTT) | 0.83
CTTCTCTCATGGACCGGTTTTCCCGGTAATCCGTATTTGCT (site CTTCTCTCTAG) | 2.48
CTTCTGCCATGGACCGGTTTTCCCGGTAATCCGTATTTGGG (site CTTCTGCCTCC) | 0.0114
CTTGACTCATGGACCGGTTTTCCCGGTAATCCGTATTTGTA (site CTTGACTCTTA) | 2.26
CTTGAGACATGGACCGGTTTTCCCGGTAATCCGTATTTGGT (site ATTGAGACTAC) | 0.141
CTTGAGACATGGACCGGTTTTCCCGGTAATCCGTATTTGGT (site CTTGAGACTAC) | 1.03
CTTGAGACATGGACCGGTTTTCCCGGTAATCCGTATTTGGT (site GTTGAGACTAC) | 0.00699
CTTGAGACATGGACCGGTTTTCCCGGTAATCCGTATTTGGT (site TTTGAGACTAC) | 0.00972
CTTGCATCATGGACCGGTTTTCCCGGTAATCCGTATTTGAT (site CTTGCATCTAT) | 0.497
CTTGCGGCATGGACCGGTTTTCCCGGTAATCCGTATTTGCT (site ATTGCGGCTAG) | 0.00273
CTTGCGGCATGGACCGGTTTTCCCGGTAATCCGTATTTGCT (site CTTGCGGCTAG) | 0.82
CTTGCGGCATGGACCGGTTTTCCCGGTAATCCGTATTTGCT (site GTTGCGGCTAG) | 0.00591
CTTGCGGCATGGACCGGTTTTCCCGGTAATCCGTATTTGCT (site TTTGCGGCTAG) | 0
CTTGCGGCATGGACCGGTTTTCCCGGTAATCCGTATTTGGG (site CTTGCGGCTCC) | 0.0147
CTTGGTCCATGGACCGGTTTTCCCGGTAATCCGTATTTGCG (site CTTGGTCCTCG) | 0.00731
